The text below walks through data of patent US20250011329A1, “SUBSTITUTED PIPERIDINYL-METHYLPURINE PYRIDINES AND RELATED COMPOUNDS AND THEIR USE IN TREATING DISEASES AND CONDITIONS” (K36 Therapeutics, Inc., priority 2023, published 2025).

In assay [1] the target is recombinant human NSD2 (Homo sapiens (Human), UniProt O96028). Briefly: NSD2 inhibitory assay (modified RBC HotSpot HMT Assay). The assay is classed as biochemical. The note with it: 2 nM NSD2, chicken oligonucleosomes 0.05 mg/ml, 3H-SAM 1 μM, 1 hour at 30° C. The method, then: Exemplary compounds were tested for NSD2 inhibitory activity using a modified RBC HotSpot HMT Assay.
Chain of recombinant human NSD2 (O96028 2-1365 limits assumed): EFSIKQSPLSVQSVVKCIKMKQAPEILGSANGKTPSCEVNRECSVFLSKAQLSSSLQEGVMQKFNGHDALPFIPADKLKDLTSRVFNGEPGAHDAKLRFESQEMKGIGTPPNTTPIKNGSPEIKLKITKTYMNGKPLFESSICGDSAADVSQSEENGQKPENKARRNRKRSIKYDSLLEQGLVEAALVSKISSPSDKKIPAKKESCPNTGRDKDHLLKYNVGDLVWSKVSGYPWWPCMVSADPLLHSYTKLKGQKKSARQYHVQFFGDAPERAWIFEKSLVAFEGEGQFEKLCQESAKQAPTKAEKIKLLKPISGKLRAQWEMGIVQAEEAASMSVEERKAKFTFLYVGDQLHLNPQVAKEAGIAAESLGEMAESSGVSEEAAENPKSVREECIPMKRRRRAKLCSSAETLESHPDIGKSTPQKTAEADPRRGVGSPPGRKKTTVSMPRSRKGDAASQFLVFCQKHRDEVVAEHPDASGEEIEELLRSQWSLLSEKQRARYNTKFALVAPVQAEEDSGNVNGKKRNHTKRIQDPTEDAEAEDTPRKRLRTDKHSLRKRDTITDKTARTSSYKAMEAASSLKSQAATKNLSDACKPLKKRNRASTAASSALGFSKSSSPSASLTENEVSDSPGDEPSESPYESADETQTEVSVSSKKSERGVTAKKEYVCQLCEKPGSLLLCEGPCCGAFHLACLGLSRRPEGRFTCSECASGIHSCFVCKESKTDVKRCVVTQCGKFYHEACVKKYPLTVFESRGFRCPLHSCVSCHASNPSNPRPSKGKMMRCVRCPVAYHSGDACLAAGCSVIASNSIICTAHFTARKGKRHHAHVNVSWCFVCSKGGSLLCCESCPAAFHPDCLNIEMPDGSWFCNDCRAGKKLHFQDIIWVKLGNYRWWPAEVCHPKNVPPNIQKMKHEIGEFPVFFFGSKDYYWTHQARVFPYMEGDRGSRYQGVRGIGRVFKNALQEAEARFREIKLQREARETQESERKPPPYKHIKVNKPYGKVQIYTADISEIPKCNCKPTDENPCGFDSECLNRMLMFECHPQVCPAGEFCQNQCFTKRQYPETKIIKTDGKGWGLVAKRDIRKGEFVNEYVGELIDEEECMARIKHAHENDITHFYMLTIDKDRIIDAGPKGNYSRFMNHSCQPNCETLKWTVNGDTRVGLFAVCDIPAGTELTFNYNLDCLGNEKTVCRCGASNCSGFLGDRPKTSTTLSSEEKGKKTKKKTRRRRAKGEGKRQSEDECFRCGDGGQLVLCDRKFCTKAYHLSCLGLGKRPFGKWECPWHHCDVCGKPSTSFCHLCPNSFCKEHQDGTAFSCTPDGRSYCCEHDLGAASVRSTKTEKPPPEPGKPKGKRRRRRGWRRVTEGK
A reaction mixture was prepared by adding oligonucleosomes from Chicken (0.05 mg/ml) to freshly prepared reaction buffer containing 50 mM Tris-HCl (pH 8.5), 50 mM NaCl, 5 mM MgCl2, 0.01% Brij35, 1 mM DTT, and 1% DMSO followed by the addition of recombinant human NSD2, (amino acids 2-end) with N-terminal His tag (2 nM; GenBank Accession No. NM_001042424; MW=155.5 kDa; expressed in Sf9 insect cells) and gentle mixing. The test compounds were diluted in DMSO, added to the reaction mixture in nanoliter amounts by using Acoustic Technology (Echo 550, LabCyte Inc. Sunnyvale, CA) and incubated for 20 minutes at room temperature. The reaction was initiated by the addition of S-Adenosyl-L-[methyl-^3H]methionine (3H-SAM; 1 μM), and the mixture was incubated for 1 hour at 30° C. The reaction mixture was delivered to filter paper and the methylated substrate was quantified by scintillation counting. Data analysis was performed using Excel and GraphPad Prism software for IC50 curve fits. For additional information on the histone methyltransferase assay, see, for example, Horiuchi K Y, et al., “Assay Development for Histone Methyltransferases,” Assay Drug Dev Technol. 2013 May; 11(4):227-36.

Assay [2] addresses recombinant human NSD1 (Homo sapiens, UniProt Q96L73). Briefly: NSD1 inhibitory assay. The format is biochemical. Conditions: 2 nM NSD1, chicken oligonucleosomes 0.05 mg/ml, 3H-SAM 1 μM, 1 hour at 30° C. On the procedure:
An exemplary compound was tested for NSD1 inhibitory activity.
A reaction mixture was prepared by adding oligonucleosomes from Chicken (0.05 mg/ml) to freshly prepared reaction buffer containing 50 mM Tris-HCl (pH 8.5), 50 mM NaCl, 5 mM MgCl2, 0.01% Brij35, 1 mM DTT, and 1% DMSO followed by the addition of recombinant human NSD1 (amino acids 2-end) with N-terminal His tag (2 nM) and gentle mixing. The test compounds were diluted in DMSO, added to the reaction mixture in nanoliter amounts by using Acoustic Technology (Echo 550, LabCyte Inc. Sunnyvale, CA) and incubated for 20 minutes at room temperature. The reaction was initiated by the addition of S-Adenosyl-L-[methyl-^3H] methionine (3H-SAM; 1 μM), and the mixture was incubated for 1 hour at 30° C. The reaction mixture was delivered to filter paper and the methylated substrate was quantified by scintillation counting. Data analysis was performed using Excel and GraphPad Prism software for IC50 curve fits. For additional information on the histone methyltransferase assay, see, for example, Horiuchi K Y, et al., “Assay Development for Histone Methyltransferases,” Assay Drug Dev Technol. 2013 May; 11(4):227-36.

For `COC(=O)COc1cc(F)c(-c2cc(Cn3cnc4c(N)ncnc43)c(N3CCC[C@](N)([C@H](O)C(F)F)C3)cn2)cc1F` [III-35, methyl 2-(4-(5-((R)-3-amino-3-((S)-2,2-difluoro-1-hydroxyethyl)piperidin-1-yl)-4-((6-amino-9H-purin-9-yl)methyl)pyridin-2-yl)-2,5-difluorophenoxy)acetate], the values for the IC50 in assay [1] and in assay [2] were under 2 nM and under 1 nM, respectively.

As for `Nc1ncnc2c1ncn2Cc1cc(-c2cc(F)c(O)cc2F)ncc1N1CCC[C@](N)([C@H](O)C(F)F)C1` [Compound J, 4-(5-((R)-3-amino-3-((S)-2,2-difluoro-1-hydroxyethyl)piperidin-1-yl)-4-((6-amino-9H-purin-9-yl)methyl)pyridin-2-yl)-2,5-difluorophenol], the IC50 in assay [1] fell in the range of 2 to 20 nM.
